Reference: US20160175318A1, “COMPOSITIONS COMPRISING ANTIBACTERIAL AGENT AND TAZOBACTAM” (WOCKHARDT LIMITED, priority 2013, published 2016)
Like-named read-outs stand apart in the source and are kept apart here.

How the values were obtained:
Type in all cases: cell-based
E. coli M-138 = assay: Quantitative drug diffusion assay (disc, zone of inhibition, CLSI); set-up: key to Interpretation of zone as per CLSI recommendations: R: Resistant; I: Intermediate; S: Sensitive (Interpretation as per CLSI recommendations, 2010)
Method in brief: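 Zone diameter read after 16-18 h, 35±2° C, ambient air, around 6 mm antibiotic-loaded discs on agar seed-inoculated with diluted overnight culture. CLSI method; cefepime/tazobactam and penicillin/ESBL-inhibitor combinations.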

E. coli B-89 [1] = assay: as above; set-up: key to Interpretation of zone as per CLSI recommendations: R: Resistant; I: Intermediate; S: Sensitive (Interpretation as per CLSI recommendations, 2010)
Method in brief: (§1)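 CLSI disc diffusion: overnight culture diluted, mixed into cooled molten agar, plates poured; 6 mm discs with drug combinations applied; incubation 16-18 h at 35±2° C, ambient air; zone of inhibition measured.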

E. coli B-123 = assay: as above; set-up: key to Interpretation of zone as per CLSI recommendations: R: Resistant; I: Intermediate; S: Sensitive (Interpretation as per CLSI recommendations, 2010)
Method in brief: as §1

E. coli 7MP [2] = assay: as above; set-up: key to Interpretation of zone as per CLSI recommendations: R: Resistant; I: Intermediate; S: Sensitive (Interpretation as per CLSI recommendations, 2010)
Method in brief: as §1

E. coli M50 [3] = assay: as above; set-up: key to Interpretation of zone as per CLSI recommendations: R: Resistant; I: Intermediate; S: Sensitive (Interpretation as per CLSI recommendations, 2010)
Method in brief: as §1

E. coli S-112 = assay: as above; set-up: key to Interpretation of zone as per CLSI recommendations: R: Resistant; I: Intermediate; S: Sensitive (Interpretation as per CLSI recommendations, 2010)
Method in brief: as §1

E. cloacae M-20 = assay: MIC by agar dilution (CLSI) against highly resistant ESBL strain; conditions: E. cloacae M-20
Method in brief: (§2)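 Agar dilution per CLSI: overnight cultures diluted and inoculated onto agar containing doubling dilutions of antibiotic (cephalosporins combined with tazobactam). Growth/no growth read after 16-20 h at 35±2° C in ambient air; MIC taken as the lowest concentration without growth.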

E. coli B123 = assay: as above; conditions: for Activity (MIC, method of Example 1), Table 7: E. coli B-123; for MIC: Escherichia coli, B123, E. coli B123, read-out: MIC
Method in brief: as §2

E. coli B-89 [4] = assay: as above; conditions: E. coli B-89
Method in brief: as §2

K. pneumoniae M150 = assay: as above
Method in brief: as §2

E. coli 7MP [5] = assay: as above; conditions: E. coli 7MP
Method in brief: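 Overnight cultures were diluted and spotted onto agar containing doubling dilutions of the cephalosporin, alone or with tazobactam. Growth versus no growth was scored after 16-20 h at 35±2° C in ambient air, following CLSI procedure.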

E. coli M50 [6] = assay: as above
Method in brief: as §2

[7] = ESBL inhibitor 0 mcg (antibiotic alone)
[8] = Table 5, with Tazobactam 10 mcg

Activity (MIC, method of Example 1), Table 7 (E. cloacae M-20; antibiotic alone): > 64 µg/mL
Activity (MIC, method of Example 1), Table 7 (E. cloacae M-20; with Clavulanic acid 4 mcg): 16 µg/mL
Activity (MIC, method of Example 1), Table 7 (E. cloacae M-20; with Clavulanic acid 8 mcg): 8 µg/mL
Activity (MIC, method of Example 1), Table 7 (E. cloacae M-20; with Sulbactam 4 mcg): 32 µg/mL
Activity (MIC, method of Example 1), Table 7 (E. cloacae M-20; with Sulbactam 8 mcg): 16 µg/mL
Activity (MIC, method of Example 1), Table 7 (E. cloacae M-20; with Tazobactam 4 mcg): 4 µg/mL
MIC (E. cloacae M-20; with Tazobactam 8 mcg): 4 µg/mL
Activity (MIC, method of Example 1), Table 7 (E. cloacae M-20; with Tazobactam, (4 mcg)): 4 µg/mL
MIC (E. cloacae M-20; Enterobacter cloacae, M20, 20 h, Tazobactam 0 mcg (antibiotic alone), read-out: MIC): > 64 µg/mL
Activity (MIC, method of Example 1), Table 7 (E. coli B123; antibiotic alone): > 64 µg/mL
Activity (MIC, method of Example 1), Table 7 (E. coli B123; with Clavulanic acid 4 mcg): 8 µg/mL
Activity (MIC, method of Example 1), Table 7 (E. coli B123; with Clavulanic acid 8 mcg): 8 µg/mL
Activity (MIC, method of Example 1), Table 7 (E. coli B123; with Sulbactam 4 mcg): 8 µg/mL
Activity (MIC, method of Example 1), Table 7 (E. coli B123; with Sulbactam 8 mcg): 16 µg/mL
Activity (MIC, method of Example 1), Table 7 (E. coli B123; with Tazobactam 4 mcg): 4 µg/mL
Activity (MIC, method of Example 1), Table 7 (E. coli B123; with Tazobactam, (4 mcg)): 2 µg/mL
MIC (E. coli B123; Tazobactam 0 mcg (antibiotic alone)): > 64 µg/mL
MIC (E. coli B123; with Tazobactam 4 mcg): 4 µg/mL
MIC (E. coli B123; with Tazobactam 8 mcg): 2 µg/mL
MIC (E. coli B-89 [4]; with Tazobactam 8 mcg): 2 µg/mL
MIC (E. coli B-89 [4]; Escherichia coli, B89, 20 h, Tazobactam 0 mcg (antibiotic alone), read-out: MIC): > 64 µg/mL
MIC (K. pneumoniae M150; K. pneumoniae M150, with Tazobactam 4 mcg): 4 µg/mL
MIC (K. pneumoniae M150; K. pneumoniae M150, with Tazobactam 8 mcg): 4 µg/mL
MIC (K. pneumoniae M150; Klebsiella pneumoniae, M150, K. pneumoniae M150, Tazobactam 0 mcg (antibiotic alone), read-out: MIC): > 64 µg/mL
MIC (K. pneumoniae M150; Klebsiella pneumoniae, M150, K. pneumoniae M150, with Tazobactam 4 mcg, read-out: MIC): 4 µg/mL
MIC (K. pneumoniae M150; Klebsiella pneumoniae, M150, K. pneumoniae M150, with Tazobactam 8 mcg, read-out: MIC): 4 µg/mL
Activity (MIC, method of Example 1), Table 7 (E. coli 7MP [5]; antibiotic alone): > 64 µg/mL
Activity (MIC, method of Example 1), Table 7 (E. coli 7MP [5]; with Clavulanic acid 4 mcg): 16 µg/mL
Activity (MIC, method of Example 1), Table 7 (E. coli 7MP [5]; with Clavulanic acid 8 mcg): 8 µg/mL
Activity (MIC, method of Example 1), Table 7 (E. coli 7MP [5]; with Sulbactam 4 mcg): 16 µg/mL
Activity (MIC, method of Example 1), Table 7 (E. coli 7MP [5]; with Sulbactam 8 mcg): 16 µg/mL
Activity (MIC, method of Example 1), Table 7 (E. coli 7MP [5]; with Tazobactam 4 mcg): 8 µg/mL
MIC (E. coli 7MP [5]; with Tazobactam 4 mcg): 8 µg/mL
MIC (E. coli 7MP [5]; with Tazobactam 8 mcg): 4 µg/mL
Activity (MIC, method of Example 1), Table 7 (E. coli 7MP [5]; with Tazobactam, (4 mcg)): 4 µg/mL
MIC (E. coli 7MP [5]; Escherichia coli, 7MP, 20 h, Tazobactam 0 mcg (antibiotic alone), read-out: MIC): > 64 µg/mL
MIC (E. coli M50 [6]; Escherichia coli, 20 h, Tazobactam 0 mcg (antibiotic alone), read-out: MIC): > 64 µg/mL
MIC (E. coli M50 [6]; with Tazobactam 4 mcg): 2 µg/mL
MIC (E. coli M50 [6]; with Tazobactam 8 mcg): 2 µg/mL
SMILES: CO/N=C(\C(=O)N[C@@H]1C(=O)N2C(C(=O)[O-])=C(C[N+]3(C)CCCC3)CS[C@H]12)c1csc(N)n1 [Cefepime]
Zone of Inhibition (E. coli M-138; [7]): Nil
Interpretation of zone as per CLSI recommendations (E. coli M-138; Table 5, ESBL inhibitor 0 mcg): (R)
Interpretation of zone as per CLSI recommendations (E. coli M-138; [8]): (S)
Zone of Inhibition (E. coli M-138; with Tazobactam 10 mcg): 23 mm
Zone of Inhibition (E. coli B-89 [1]; [7]): 8 mm
Interpretation of zone as per CLSI recommendations (E. coli B-89 [1]; Table 5, ESBL inhibitor 0 mcg): (R)
Interpretation of zone as per CLSI recommendations (E. coli B-89 [1]; [8]): (S)
Zone of Inhibition (E. coli B-89 [1]; with Tazobactam 10 mcg): 20 mm
Zone of Inhibition (E. coli B-123; [7]): 8 mm
Interpretation of zone as per CLSI recommendations (E. coli B-123; Table 5, ESBL inhibitor 0 mcg): (R)
Interpretation of zone as per CLSI recommendations (E. coli B-123; [8]): (S)
Zone of Inhibition (E. coli B-123; with Tazobactam 10 mcg): 20 mm
Zone of Inhibition (E. coli 7MP [2]; [7]): 16 mm
Interpretation of zone as per CLSI recommendations (E. coli 7MP [2]; Table 5, ESBL inhibitor 0 mcg): (I)
Interpretation of zone as per CLSI recommendations (E. coli 7MP [2]; [8]): (S)
Zone of Inhibition (E. coli 7MP [2]; with Tazobactam 10 mcg): 20.5 mm
Zone of Inhibition (E. coli M50 [3]; [7]): 7.5 mm
Interpretation of zone as per CLSI recommendations (E. coli M50 [3]; Table 5, ESBL inhibitor 0 mcg): (R)
Interpretation of zone as per CLSI recommendations (E. coli M50 [3]; [8]): (S)
Zone of Inhibition (E. coli M50 [3]; with Tazobactam 10 mcg): 24 mm
Zone of Inhibition (E. coli S-112; [7]): 17 mm
Interpretation of zone as per CLSI recommendations (E. coli S-112; Table 5, ESBL inhibitor 0 mcg): (I)
Interpretation of zone as per CLSI recommendations (E. coli S-112; [8]): (S)
Zone of Inhibition (E. coli S-112; with Tazobactam 10 mcg): 20.5 mm
